Measured values: ChEMBL document CHEMBL3885881, “DrugMatrix”

Species on record: Rattus norvegicus
Assay: DrugMatrix - Regimen: Daily Repeat
Type: toxicity, organism-based, Sprague-Dawley
Design: regimen Daily Repeat, gender Male, age 6-8 weeks
Conditions: in vivo, po, route oral GAVAGE, […]; for ABSOLUTE BASOPHIL / BASOPHIL / NUCLEATED RED BLOOD CELLS / ABSOLUTE EOSINOPHIL / EOSINOPHIL / HEMOGLOBIN / PLATELET COUNT / ABSOLUTE LYMPHOCYTE / ABSOLUTE MONOCYTE / ABSOLUTE SEGMENTED NEUTROPHIL / ERYTHROCYTE COUNT / HEMATOCRIT / LYMPHOCYTE / MEAN CORPUSCULAR HEMOGLOBIN CONCENTRATION / MEAN CORPUSCULAR VOLUME: tissue Blood; for ASPARTATE AMINOTRANSFERASE / ALANINE AMINOTRANSFERASE / ALBUMIN / ALKALINE PHOSPHATASE / BLOOD UREA NITROGEN / CARBON DIOXIDE / CREATINE PHOSPHOKINASE / CREATININE / LACTATE DEHYDROGENASE / TOTAL BILIRUBIN / TOTAL PROTEIN / URIC ACID: tissue Plasma
[1] = 0 mg/kg, 72 h, dose level Control, time 3 day
[2] = 0 mg/kg, 120 h, dose level Control, time 5 day
[3] = 0 mg/kg, dose level Control, time 7 day
[4] = 43 mg/kg, 72 h, dose level Low, time 3 day
[5] = 43 mg/kg, 120 h, dose level Low, time 5 day
[6] = 100 mg/kg, 72 h, dose level M1, time 3 day
[7] = 100 mg/kg, dose level M1, time 7 day
[8] = 215 mg/kg, 72 h, dose level M2, time 3 day

Structure (SMILES): CC(C)OC(=O)C(C)(C)Oc1ccc(C(=O)c2ccc(Cl)cc2)cc1 [FENOFIBRATE]
- ABSOLUTE BASOPHIL [1]: 0 CELLS/uL
- BASOPHIL [1]: 0%
- NUCLEATED RED BLOOD CELLS [1]: 0 /100WBC
- ABSOLUTE BASOPHIL [2]: 0 CELLS/uL
- ABSOLUTE EOSINOPHIL [2]: 0 CELLS/uL
- BASOPHIL [2]: 0%
- EOSINOPHIL [2]: 0%
- HEMOGLOBIN [2]: 13.5 G/DL
- PLATELET COUNT [2]: 807.17 x10E3/uL
- ASPARTATE AMINOTRANSFERASE [2]: 83 u/L
- ABSOLUTE BASOPHIL [3]: 0 CELLS/uL
- ABSOLUTE EOSINOPHIL [3]: 19 CELLS/uL
- ABSOLUTE LYMPHOCYTE [3]: 7803.5 CELLS/uL
- ABSOLUTE MONOCYTE [3]: 117.83 CELLS/uL
- ABSOLUTE SEGMENTED NEUTROPHIL [3]: 1093 CELLS/uL
- BASOPHIL [3]: 0%
- EOSINOPHIL [3]: 0.17%
- ERYTHROCYTE COUNT [3]: 5.84 x10E6/uL
- HEMATOCRIT [3]: 35.75%
- HEMOGLOBIN [3]: 13.87 G/DL
- LYMPHOCYTE [3]: 87.17%
- MEAN CORPUSCULAR HEMOGLOBIN CONCENTRATION [3]: 38.8 G/DL
- MEAN CORPUSCULAR VOLUME [3]: 61.25 fL
- NUCLEATED RED BLOOD CELLS [3]: 0 /100WBC
- PLATELET COUNT [3]: 1098.67 x10E3/uL
- ALANINE AMINOTRANSFERASE [3]: 66 u/L
- ALBUMIN [3]: 4.3 G/DL
- ALKALINE PHOSPHATASE [3]: 291.83 u/L
- ASPARTATE AMINOTRANSFERASE [3]: 80.5 u/L
- BLOOD UREA NITROGEN [3]: 15.67 mg/dL
- CARBON DIOXIDE [3]: 30 mmol/L
- CREATINE PHOSPHOKINASE [3]: 363.33 u/L
- CREATININE [3]: 0.25 mg/dL
- LACTATE DEHYDROGENASE [3]: 219.67 u/L
- TOTAL BILIRUBIN [3]: 0.12 mg/dL
- TOTAL PROTEIN [3]: 6.33 G/DL
- URIC ACID [3]: 0.75 mg/dL
- ABSOLUTE BASOPHIL [4]: 0 CELLS/uL
- ABSOLUTE EOSINOPHIL [4]: 76 CELLS/uL
- ABSOLUTE LYMPHOCYTE [4]: 10300 CELLS/uL
- ABSOLUTE MONOCYTE [4]: 0 CELLS/uL
- ABSOLUTE SEGMENTED NEUTROPHIL [4]: 324 CELLS/uL
- BASOPHIL [4]: 0%
- EOSINOPHIL [4]: 0.67%
- ERYTHROCYTE COUNT [4]: 5.15 x10E6/uL
- HEMATOCRIT [4]: 32.83%
- HEMOGLOBIN [4]: 12.83 G/DL
- LYMPHOCYTE [4]: 96.33%
- MEAN CORPUSCULAR HEMOGLOBIN CONCENTRATION [4]: 39.07 G/DL
- MEAN CORPUSCULAR VOLUME [4]: 63.77 fL
- NUCLEATED RED BLOOD CELLS [4]: 0.33 /100WBC
- PLATELET COUNT [4]: 922 x10E3/uL
- ALANINE AMINOTRANSFERASE [4]: 71 u/L
- ALBUMIN [4]: 3.7 G/DL
- ALKALINE PHOSPHATASE [4]: 389.33 u/L
- ASPARTATE AMINOTRANSFERASE [4]: 87.67 u/L
- BLOOD UREA NITROGEN [4]: 7 mg/dL
- CARBON DIOXIDE [4]: 22 mmol/L
- CREATINE PHOSPHOKINASE [4]: 129.33 u/L
- CREATININE [4]: 0.13 mg/dL
- LACTATE DEHYDROGENASE [4]: 74.33 u/L
- TOTAL BILIRUBIN [4]: 0.1 mg/dL
- TOTAL PROTEIN [4]: 4.67 G/DL
- URIC ACID [4]: 0.63 mg/dL
- ABSOLUTE BASOPHIL [5]: 0 CELLS/uL
- ABSOLUTE EOSINOPHIL [5]: 51.33 CELLS/uL
- ABSOLUTE LYMPHOCYTE [5]: 9774.33 CELLS/uL
- ABSOLUTE MONOCYTE [5]: 51.33 CELLS/uL
- ABSOLUTE SEGMENTED NEUTROPHIL [5]: 823 CELLS/uL
- BASOPHIL [5]: 0%
- EOSINOPHIL [5]: 0.67%
- ERYTHROCYTE COUNT [5]: 4.75 x10E6/uL
- HEMATOCRIT [5]: 30.63%
- HEMOGLOBIN [5]: 12.1 G/DL
- LYMPHOCYTE [5]: 91.33%
- MEAN CORPUSCULAR HEMOGLOBIN CONCENTRATION [5]: 39.5 G/DL
- MEAN CORPUSCULAR VOLUME [5]: 64.5 fL
- NUCLEATED RED BLOOD CELLS [5]: 0 /100WBC
- PLATELET COUNT [5]: 848.67 x10E3/uL
- ALANINE AMINOTRANSFERASE [5]: 54.67 u/L
- ALBUMIN [5]: 4.57 G/DL
- ALKALINE PHOSPHATASE [5]: 365.33 u/L
- ASPARTATE AMINOTRANSFERASE [5]: 98.33 u/L
- BLOOD UREA NITROGEN [5]: 12.33 mg/dL
- CARBON DIOXIDE [5]: 27 mmol/L
- CREATINE PHOSPHOKINASE [5]: 885.67 u/L
- CREATININE [5]: 0.27 mg/dL
- LACTATE DEHYDROGENASE [5]: 151.33 u/L
- TOTAL BILIRUBIN [5]: 0.13 mg/dL
- TOTAL PROTEIN [5]: 5.73 G/DL
- URIC ACID [5]: 0.97 mg/dL
- ABSOLUTE BASOPHIL [6]: 0 CELLS/uL
- ABSOLUTE EOSINOPHIL [6]: 17.33 CELLS/uL
- ABSOLUTE LYMPHOCYTE [6]: 10964.5 CELLS/uL
- ABSOLUTE MONOCYTE [6]: 176.17 CELLS/uL
- ABSOLUTE SEGMENTED NEUTROPHIL [6]: 858.67 CELLS/uL
- BASOPHIL [6]: 0%
- EOSINOPHIL [6]: 0.17%
- ERYTHROCYTE COUNT [6]: 5.66 x10E6/uL
- HEMATOCRIT [6]: 35.15%
- HEMOGLOBIN [6]: 14.03 G/DL
- LYMPHOCYTE [6]: 91.17%
- MEAN CORPUSCULAR HEMOGLOBIN CONCENTRATION [6]: 39.97 G/DL
- MEAN CORPUSCULAR VOLUME [6]: 62.08 fL
- NUCLEATED RED BLOOD CELLS [6]: 0 /100WBC
- ALANINE AMINOTRANSFERASE [6]: 54.33 u/L
- ALBUMIN [6]: 4.53 G/DL
- ALKALINE PHOSPHATASE [6]: 352 u/L
- ASPARTATE AMINOTRANSFERASE [6]: 82 u/L
- CARBON DIOXIDE [6]: 33 mmol/L
- CREATINE PHOSPHOKINASE [6]: 171.5 u/L
- CREATININE [6]: 0.19 mg/dL
- LACTATE DEHYDROGENASE [6]: 147.33 u/L
- TOTAL BILIRUBIN [6]: 0.17 mg/dL
- TOTAL PROTEIN [6]: 5.83 G/DL
- ABSOLUTE BASOPHIL [7]: 0 CELLS/uL
- ABSOLUTE EOSINOPHIL [7]: 14.83 CELLS/uL
- ABSOLUTE LYMPHOCYTE [7]: 8599.83 CELLS/uL
- ABSOLUTE SEGMENTED NEUTROPHIL [7]: 668 CELLS/uL
- BASOPHIL [7]: 0%
- EOSINOPHIL [7]: 0.17%
- ERYTHROCYTE COUNT [7]: 5.49 x10E6/uL
- HEMATOCRIT [7]: 33.87%
- HEMOGLOBIN [7]: 13.08 G/DL
- LYMPHOCYTE [7]: 92.33%
- MEAN CORPUSCULAR HEMOGLOBIN CONCENTRATION [7]: 38.63 G/DL
- MEAN CORPUSCULAR VOLUME [7]: 61.8 fL
- NUCLEATED RED BLOOD CELLS [7]: 0 /100WBC
- PLATELET COUNT [7]: 1292.17 x10E3/uL
- ALANINE AMINOTRANSFERASE [7]: 74.17 u/L
- ALBUMIN [7]: 5.1 G/DL
- ALKALINE PHOSPHATASE [7]: 331.67 u/L
- ASPARTATE AMINOTRANSFERASE [7]: 84.67 u/L
- BLOOD UREA NITROGEN [7]: 15.33 mg/dL
- CARBON DIOXIDE [7]: 31.67 mmol/L
- CREATINE PHOSPHOKINASE [7]: 252 u/L
- CREATININE [7]: 0.24 mg/dL
- LACTATE DEHYDROGENASE [7]: 121.33 u/L
- TOTAL BILIRUBIN [7]: 0.1 mg/dL
- TOTAL PROTEIN [7]: 6.25 G/DL
- ABSOLUTE BASOPHIL [8]: 0 CELLS/uL
- ABSOLUTE EOSINOPHIL [8]: 60.33 CELLS/uL
- ABSOLUTE LYMPHOCYTE [8]: 18749.67 CELLS/uL
- ABSOLUTE MONOCYTE [8]: 284.33 CELLS/uL
- ABSOLUTE SEGMENTED NEUTROPHIL [8]: 1839 CELLS/uL
- BASOPHIL [8]: 0%
- EOSINOPHIL [8]: 0.33%
- ERYTHROCYTE COUNT [8]: 5.51 x10E6/uL
- HEMATOCRIT [8]: 33.9%
